Assay results taken from ChEMBL document CHEMBL5523720, “Identification of novel GSPT1 degraders by virtual screening and bioassay” (Eur J Med Chem, 2024).
Each block holds one molecule with its values, some of them ahead of it. Calls of active or inactive are those of the source. No cut-off for these calls is given here.

What was measured:
[1] = test system: U-266; assay: Antiproliferative activity against human U-266 cells incubated for 48 hrs by MTS assay; assay type: functional, cell-based; conditions: U-266, 48 h
[2] = test system: U-937; assay: Antiproliferative activity against human U-937 cells incubated for 48 hrs by MTS assay; assay type: functional, cell-based; conditions: U-937, 48 h
[3] = test system: K562; assay: Antiproliferative activity against human K562 cells incubated for 48 hrs by MTS assay; assay type: functional, cell-based; conditions: K562, 48 h
[4] = test system: OCI-AML2; assay: Antiproliferative activity against human OCI-AML2 cells incubated for 48 hrs by MTS assay; assay type: functional, cell-based; conditions: OCI-AML2, 48 h
[5] = target: Eukaryotic peptide chain release factor GTP-binding subunit ERF3A (Homo sapiens) (UniProt P15170); assay: Induction of GSPT1 degradation in human OCI-AML2 cells at 10 uM incubated for 8 hrs by Western blotting analysis; assay type: cell-based
[6] = target: Eukaryotic peptide chain release factor GTP-binding subunit ERF3A (Homo sapiens) (UniProt P15170); assay: Induction of GSPT1 degradation in human U-937 cells at 10 uM incubated for 8 hrs by Western blotting analysis; assay type: cell-based
[7] = test system: U-937; assay: Downregulation of GSPT1 in human U-937 cells incubated for 8 hrs by Western blotting analysis; assay type: functional, cell-based; conditions: dose 5-40 µM
[8] = test system: U-937; assay: Downregulation of IKZF1 in human U-937 cells incubated for 8 hrs by Western blotting analysis; assay type: functional, cell-based; conditions: dose 5-40 µM
[9] = test system: U-937; assay: Downregulation of CK1alpha in human U-937 cells incubated for 8 hrs by Western blotting analysis; assay type: functional, cell-based; conditions: dose 5-40 µM
[10] = test system: OCI-AML2; assay: Downregulation of GSPT1 in human OCI-AML2 cells incubated for 8 hrs by Western blotting analysis; assay type: functional, cell-based; conditions: dose 5-40 µM
[11] = test system: OCI-AML2; assay: Downregulation of IKZF1 in human OCI-AML2 cells incubated for 8 hrs by Western blotting analysis; assay type: functional, cell-based; conditions: dose 5-40 µM
[12] = test system: OCI-AML2; assay: Downregulation of CK1alpha in human OCI-AML2 cells incubated for 8 hrs by Western blotting analysis; assay type: functional, cell-based; conditions: dose 5-40 µM
[13] = test system: U-937; assay: Downregulation of GSPT1 in human U-937 cells at high concentration incubated for 8 hrs by Western blotting analysis; assay type: functional, cell-based
[14] = test system: U-937; assay: Downregulation of IKZF1 in human U-937 cells at high concentration incubated for 8 hrs by Western blotting analysis; assay type: functional, cell-based
[15] = test system: U-937; assay: Downregulation of CK1alpha in human U-937 cells at high concentration incubated for 8 hrs by Western blotting analysis; assay type: functional, cell-based
[16] = test system: OCI-AML2; assay: Downregulation of GSPT1 in human OCI-AML2 cells at high concentration incubated for 8 hrs by Western blotting analysis; assay type: functional, cell-based
[17] = test system: OCI-AML2; assay: Downregulation of IKZF1 in human OCI-AML2 cells at high concentration incubated for 8 hrs by Western blotting analysis; assay type: functional, cell-based
[18] = test system: OCI-AML2; assay: Downregulation of CK1alpha in human OCI-AML2 cells at high concentration incubated for 8 hrs by Western blotting analysis; assay type: functional, cell-based
[19] = target: Eukaryotic peptide chain release factor GTP-binding subunit ERF3A (Homo sapiens) (UniProt P15170); assay: Induction of GSPT1 degradation in human U-937 cells with CHX pretreatment by Western blotting analysis; assay type: cell-based; conditions: dose 20-40 µM
[20] = target: Eukaryotic peptide chain release factor GTP-binding subunit ERF3A (Homo sapiens) (UniProt P15170); assay: Induction of GSPT1 degradation in human U-937 cells at 20 to 40 uM pretreated with MG132 for 1 hr followed by compound addition and measured after 8 hrs by Western blotting analysis; assay type: cell-based; conditions: dose 20-40 µM
[21] = target: Eukaryotic peptide chain release factor GTP-binding subunit ERF3A (Homo sapiens) (UniProt P15170); assay: Induction of GSPT1 degradation in human U-937 cells at 20 to 40 uM pretreated with MLN4924 followed by compound addition and measured after 8 hrs by Western blotting analysis; assay type: cell-based; conditions: dose 20-40 µM
[22] = target: Eukaryotic peptide chain release factor GTP-binding subunit ERF3A (Homo sapiens) (UniProt P15170); assay: Induction of GSPT1 degradation in human OCI-AML2 cells at 20 to 40 uM pretreated with MLN4924 followed by compound addition and measured after 8 hrs by Western blotting analysis; assay type: cell-based; conditions: dose 20-40 µM
[23] = target: Eukaryotic peptide chain release factor GTP-binding subunit ERF3A (Homo sapiens) (UniProt P15170); assay: Induction of GSPT1 degradation in human HEK293FT cells at 20 to 40 uM pretreated with MLN4924 for 1 hr followed by compound addition and measured after 8 hrs by Western blotting analysis; assay type: cell-based; conditions: dose 20-40 µM
[24] = target: Protein cereblon (Homo sapiens) (UniProt Q96SW2); assay: Binding affinity to recombinant CRBN (unknown origin) by SPR assay
[25] = target: T1, Protein cereblon/Eukaryotic peptide chain release factor GTP-binding subunit ERF3A (Homo sapiens) (UniProt Q96SW2+P15170); assay: Induction of CRBN to GSPT1 protein-protein interaction in human U-937 cells at 20 uM pretreated with MG132 for 1 hr followed by compound addition and measured after 8 hrs by immunoprecipitation assay; assay type: cell-based; conditions: filed as activator
[26] = target: T1, Protein cereblon/Eukaryotic peptide chain release factor GTP-binding subunit ERF3A (Homo sapiens); assay: Binding affinity to CRBN/GSPT1 in human U-937 cells assessed as increase in protein stabilization incubated for 6 hrs by CETSA; assay type: cell-based; conditions: filed as activator
[27] = test system: U-937; assay: Antiproliferative activity against CRBN knockdown human U-937 cells incubated for 48 hrs by MTS assay; assay type: functional, cell-based
[28] = test system: OCI-AML2; assay: Antiproliferative activity against GSPT1 knockout human OCI-AML2 cells incubated for 48 hrs by MTS assay; assay type: functional, cell-based
[29] = test system: U-937; assay: Induction of cell cycle arrest in human U-937 cells assessed as increase in G1 phase cells at 5 to 20 uM incubated for 24 hrs by propidium iodide staining based flow cytometry analysis; assay type: functional; conditions: dose 5-20 µM
[30] = test system: U-937; assay: Induction of cell cycle arrest in human U-937 cells assessed as decrease in M phase cells at 5 to 20 uM incubated for 24 hrs by propidium iodide staining based flow cytometry analysis; assay type: functional; conditions: dose 5-20 µM
[31] = test system: OCI-AML2; assay: Induction of cell cycle arrest in human OCI-AML2 cells assessed as increase in G1 phase cells at 5 to 20 uM incubated for 24 hrs by propidium iodide staining based flow cytometry analysis; assay type: functional; conditions: dose 5-20 µM
[32] = test system: OCI-AML2; assay: Induction of cell cycle arrest in human OCI-AML2 cells assessed as decrease in M phase cells at 5 to 20 uM incubated for 24 hrs by propidium iodide staining based flow cytometry analysis; assay type: functional; conditions: dose 5-20 µM
[33] = test system: U-937; assay: Induction of apoptosis in human U-937 cells assessed as increase in number of apoptotic cells at 5 to 20 uM incubated for 48 hrs by Annexin V-FITC/PI staining based flow cytometry analysis; assay type: functional, cell-based; conditions: dose 5-20 µM
[34] = test system: OCI-AML2; assay: Induction of apoptosis in human OCI-AML2 cells assessed as increase in number of apoptotic cells at 5 to 20 uM incubated for 48 hrs by Annexin V-FITC/PI staining based flow cytometry analysis; assay type: functional, cell-based; conditions: dose 5-20 µM
[35] = test system: U-937; assay: Upregulation of caspase 9 level in human U-937 cells at 5 to 20 uM incubated for 24 hrs by Western blotting assay; assay type: functional, cell-based; conditions: dose 5-20 µM
[36] = test system: U-937; assay: Upregulation of PARP cleavage in human U-937 cells at 5 to 20 uM incubated for 24 hrs by Western blotting assay; assay type: functional, cell-based; conditions: dose 5-20 µM
[37] = test system: U-937; assay: Upregulation of p21 level in human U-937 cells at 5 to 20 uM incubated for 24 hrs by Western blotting assay; assay type: functional, cell-based; conditions: dose 5-20 µM
[38] = test system: U-937; assay: Downregulation of c-Myc level in human U-937 cells at 5 to 20 uM incubated for 24 hrs by Western blotting assay; assay type: functional, cell-based; conditions: dose 5-20 µM
[39] = test system: OCI-AML2; assay: Upregulation of caspase 9 level in human OCI-AML2 cells at 5 to 20 uM incubated for 24 hrs by Western blotting assay; assay type: functional, cell-based; conditions: dose 5-20 µM
[40] = test system: OCI-AML2; assay: Upregulation of PARP cleavage in human OCI-AML2 cells at 5 to 20 uM incubated for 24 hrs by Western blotting assay; assay type: functional, cell-based; conditions: dose 5-20 µM
[41] = test system: OCI-AML2; assay: Upregulation of p21 level in human OCI-AML2 cells at 5 to 20 uM incubated for 24 hrs by Western blotting assay; assay type: functional, cell-based; conditions: dose 5-20 µM
[42] = test system: OCI-AML2; assay: Downregulation of c-Myc level in human OCI-AML2 cells at 5 to 20 uM incubated for 24 hrs by Western blotting assay; assay type: functional, cell-based; conditions: dose 5-20 µM
[43] = target: Eukaryotic peptide chain release factor GTP-binding subunit ERF3A (Homo sapiens) (UniProt P15170); assay: Induction of GSPT1 degradation in human OCI-AML2 cells at 1 uM incubated for 8 hrs by Western blotting analysis; assay type: cell-based
[44] = target: Eukaryotic peptide chain release factor GTP-binding subunit ERF3A (Homo sapiens) (UniProt P15170); assay: Induction of GSPT1 degradation in human U-937 cells at 1 uM incubated for 8 hrs by Western blotting analysis; assay type: cell-based
[45] = target: T1, Protein cereblon/Eukaryotic peptide chain release factor GTP-binding subunit ERF3A (Homo sapiens); assay: Induction of CRBN to GSPT1 protein-protein interaction in human U-937 cells at 1 uM pretreated with MG132 for 1 hr followed by compound addition and measured after 8 hrs by immunoprecipitation assay; assay type: cell-based; conditions: filed as activator

T1 sequence (P15170 whole entry, looked up): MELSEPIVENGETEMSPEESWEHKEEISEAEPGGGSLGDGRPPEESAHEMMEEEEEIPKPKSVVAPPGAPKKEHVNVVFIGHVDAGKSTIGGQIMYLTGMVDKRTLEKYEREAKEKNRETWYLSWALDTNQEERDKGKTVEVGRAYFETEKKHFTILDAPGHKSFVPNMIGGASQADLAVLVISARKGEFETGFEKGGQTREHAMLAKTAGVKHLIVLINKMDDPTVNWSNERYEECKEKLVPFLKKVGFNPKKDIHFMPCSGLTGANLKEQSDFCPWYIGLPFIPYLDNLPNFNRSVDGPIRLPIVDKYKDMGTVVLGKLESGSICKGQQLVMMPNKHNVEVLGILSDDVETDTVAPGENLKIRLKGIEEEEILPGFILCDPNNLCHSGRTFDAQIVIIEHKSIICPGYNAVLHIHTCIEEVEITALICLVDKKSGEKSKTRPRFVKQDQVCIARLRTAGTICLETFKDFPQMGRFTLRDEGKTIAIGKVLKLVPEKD
T1 sequence (Q96SW2 whole entry, looked up): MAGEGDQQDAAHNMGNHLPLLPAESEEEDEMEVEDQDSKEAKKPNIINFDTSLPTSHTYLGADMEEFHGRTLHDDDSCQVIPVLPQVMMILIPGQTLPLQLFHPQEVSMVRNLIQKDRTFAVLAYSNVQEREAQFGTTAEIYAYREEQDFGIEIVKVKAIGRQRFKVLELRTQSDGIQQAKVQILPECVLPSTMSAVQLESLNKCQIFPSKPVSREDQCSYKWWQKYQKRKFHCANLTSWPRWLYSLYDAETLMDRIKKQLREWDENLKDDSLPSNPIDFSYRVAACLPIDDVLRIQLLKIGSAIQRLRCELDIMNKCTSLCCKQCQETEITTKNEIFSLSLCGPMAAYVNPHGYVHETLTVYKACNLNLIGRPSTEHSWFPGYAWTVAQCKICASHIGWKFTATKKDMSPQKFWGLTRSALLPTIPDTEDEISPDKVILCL
Chain of Eukaryotic peptide chain release factor GTP-binding subunit ERF3A (Homo sapiens) (P15170 whole entry): as the sequence (P15170 whole entry, looked up) above
Chain of Protein cereblon (Homo sapiens) (Q96SW2 whole entry): as the sequence (Q96SW2 whole entry, looked up) above

Compound: CC(C)=NNC(=O)c1cc2cccc(C)c2nc1C
IC50 [1]: > 40 µM | IC50 [2]: > 40 µM | IC50 [3]: > 40 µM | IC50 [4]: > 40 µM

Compound: Cc1nc2c(C)cccc2cc1C(=O)N/N=C/c1cccc(O)c1
IC50 [1]: 17.7 µM | IC50 [2]: 22.6 µM | IC50 [3]: 19.4 µM | IC50 [4]: 17.2 µM | Activity [5]: Active | Activity [6]: Active | Activity [7]: Dose-Dependent Effect | Activity [8]: Dose-Dependent Effect | Activity [9]: Dose-Dependent Effect | Activity [10]: Dose-Dependent Effect | Activity [11]: Dose-Dependent Effect | Activity [12]: Dose-Dependent Effect

Compound: Cc1nc2ccccc2cc1C(=O)N/N=C/c1ccccn1
IC50 [1]: > 40 µM | IC50 [2]: > 40 µM | IC50 [3]: > 40 µM | IC50 [4]: > 40 µM

Compound: O=C1CCC(N2Cc3cc(CNC(=O)C(F)(F)c4ccc(Cl)cc4)ccc3C2=O)C(=O)N1 (configuration not stated)
Activity [43]: Active | IC50 [1]: 0.04 µM | IC50 [2]: < 0.032 µM | IC50 [3]: > 40 µM | IC50 [4]: 0.01 µM | Activity [44]: Active | Activity [45]: Active

Compound: Cc1ccc2nc(C)c(C(=O)N/N=C/c3cccc([N+](=O)[O-])c3)cc2c1
IC50 [1]: > 40 µM | IC50 [2]: > 40 µM | IC50 [3]: > 40 µM | IC50 [4]: > 40 µM

Compound: Cc1ccc2nc(C)c(C(=O)N/N=C/c3cccnc3)cc2c1
IC50 [1]: > 40 µM | IC50 [2]: > 40 µM | IC50 [3]: > 40 µM | IC50 [4]: > 40 µM

The remaining molecules from weak to strong by IC50 [2], led by results:

IC50 [2]: 16.4 µM | IC50 [3]: 37.6 µM | IC50 [4]: 11 µM
Compound: Cc1nc2c(C)cccc2cc1C(=O)N/N=C/c1ccccc1
IC50 [1]: 10.1 µM

IC50 [2]: 6.89 µM | IC50 [3]: > 40 µM | IC50 [4]: 2.66 µM
Compound: Cc1nc2c(C)cccc2cc1C(=O)N/N=C/c1ccccc1Cl
IC50 [1]: 3.93 µM

IC50 [2]: 4.49 µM | IC50 [3]: 16.7 µM | IC50 [4]: 2.64 µM | Activity [19]: Dose-Dependent Effect | Activity [20]: inactive | Activity [21]: inactive | Activity [22]: inactive | Activity [23]: inactive | Activity [24]: Active | Activity [25]: Active | Activity [26]: Active
Compound: Cc1nc2c(C)cccc2cc1C(=O)N/N=C/c1ccccc1O
IC50 [1]: 3.8 µM | Activity [13]: Active | Activity [14]: Active | Activity [15]: Active | Activity [16]: Active | Activity [17]: Active | Activity [18]: Active | Activity [27]: inactive | Activity [28]: inactive | Activity [29]: Active | Activity [30]: Active | Activity [31]: Active | Activity [32]: Active | Activity [33]: Active | Activity [34]: Active | Activity [35]: Active | Activity [36]: Active | Activity [37]: Active | Activity [38]: Active | Activity [39]: Active | Activity [40]: Active | Activity [41]: Active | Activity [42]: Active
